We go through 17 compounds from US7928099B2, “Pyrimido [4,5-D] azepine derivatives as 5-HT2c agonists” (Pfizer Inc, priority 2007, dated 2011).

Structures can show the parent of a compound that is named as a salt.

The target of experiment [1] is T1, human recombinant 5-HT2c receptor (Homo sapiens, UniProt P28335).
T1 construct: expressed in transfected cells; host or cells: CHO K1 (Chinese hamster ovary), stably transfected
T1 sequence (P28335 33-458): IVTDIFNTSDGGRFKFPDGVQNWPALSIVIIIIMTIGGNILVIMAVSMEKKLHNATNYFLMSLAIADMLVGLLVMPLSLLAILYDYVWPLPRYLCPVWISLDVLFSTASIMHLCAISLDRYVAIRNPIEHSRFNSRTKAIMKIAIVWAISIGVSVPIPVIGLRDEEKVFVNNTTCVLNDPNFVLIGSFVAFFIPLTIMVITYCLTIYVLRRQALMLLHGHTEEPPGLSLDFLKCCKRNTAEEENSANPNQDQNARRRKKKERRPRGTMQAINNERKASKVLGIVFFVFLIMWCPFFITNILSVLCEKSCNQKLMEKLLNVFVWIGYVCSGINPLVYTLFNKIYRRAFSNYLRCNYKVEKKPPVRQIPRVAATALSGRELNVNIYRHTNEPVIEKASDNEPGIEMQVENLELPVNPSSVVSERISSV
Description: FLIPR fluorescent Ca2+ mobilisation agonist assay in CHO K1 cells (Method 1). Format: cell-based. As to conditions: for EC50: agonist affinity, FLIPR; for Emax %: efficacy; for Emax % / Emax: percentage of mean maximal response to 10 μM 5-HT; for Emax: CHO-K1, efficacy. Here is the method:
(§1) The compounds of the invention were evaluated for biological activity by measuring the agonist affinity (EC50) and efficacy (Emax) at the human recombinant 5-HT2c receptor expressed in CHO K1 cells, using a fluorescent based Ca^2+ mobilisation assay format compatible with FLIPR technology (Method 1). Additionally, the binding activity of a compound was determined by measuring its affinity for the human recombinant 5-HT2c receptor membranes from Swiss 3T3 cells (Method 2).
The agonist affinity of the compounds were tested by measuring their ability to induce a fluorescent based Ca^2+ mobilization signal in a FLIPR assay using CHO K1 cells expressing recombinant human 5-HT2C receptor. Both agonist affinity (EC50) and efficacy (Emax) were determined.
Chinese hamster ovary cells (CHO K1) stably transfected with the 5-HT2c receptor were cultured under standard cell culture techniques. Specifically, cells were grown at 37° C. and 5% CO2 in Dulbecco's Modified Eagle's Medium (DMEM) culture media supplemented with 10% dialysed foetal calf serum (FCS), 1% non-essential amino acids, 1 mM sodium pyruvate, 800 μg/mL geneticin and 50 μg/ml zeocin. Cells were harvested for passaging and storage using trypsin-EDTA, centrifugation and resuspension in culture medium. Cells were grown to 60-80% confluency, harvested and adjusted to 15-20×10^6 cells/ml/vial in medium/10% DMSO and stored long-term at −80° C.
Cells were seeded into black-walled clear-bottomed 384 well plates 24 h before use. Frozen cells were defrosted in a 37° C. water bath and immediately transferred into 1 mL/vial 37° C. culture medium, diluted to 10 ml and DMSO removed by centrifugation. The cells were resuspended in 15 ml/vial of cell culture medium, counted and adjusted to give 500,000 cells/mL (10,000 cells/well). […] of cell suspension was added to the 384 well plates which were then incubated overnight at 37° C.
The maximum agonist response was determined with 5-HT at a final assay concentration of 10 μM in the diluent above. The minimum response was determined with Dulbeccos PBS (+CaCl2, +MgCl2) with 0.9% DMSO and 0.05% pluronic F-127. Test compounds, maximum and minimum controls were added to a 384 well polypropylene plate.
The FLIPR calcium assay reagent was diluted with assay buffer (Hank's Balanced Salt Solution (HBSS))/20 mM HEPES and 2.5 mM probenecid (diluted with 1M Sodium hydroxide and DPBS (+CaCl2, +MgCl2)).
20 μl/well FLIPR calcium assay reagent was added to the cell plates, which were incubated for 1 h at 37° C. Cell plates and compound plates were then transferred onto the FLIPR. The assay was run using the appropriate FLIPR program, which initiates the reaction by transferring 15 μL compound into the corresponding, well of the cell plate.
The statistical parameter exported from each well was the max peak height of the response.
(Calcium assays in cells follow changes in intracellular calcium, usually with a dye or a luminescent sensor.)

The target of experiment [2] is T1, human recombinant 5-HT2c receptor. The experiment in a line: 3H-meselurgine radioligand binding SPA, membranes from Swiss 3T3 cells (Method 2). Particulars: 3H-meselurgine displacement, Cheng-Prusoff; Swiss 3T3 membranes; read-out: Binding Affinity Ki. Here is the method:
as §1
The compounds were tested for biological activity by their ability to inhibit binding of the radioligand ^3H-meselurgine at the human recombinant 5-HT2C receptor expressed in the Swiss 3T3 cells using a scintillation proximity assay (SPA) technology.
Swiss 3T3 stably transfected with the 5-HT2C receptor were cultured under standard cell culture techniques. Specifically, cells were grown in 50 mL growth medium (Dulbecco's Modified Eagle's Medium (DMEM) culture media supplemented with 10% dialysed foetal calf serum (FCS), 2 mM penicillin/streptomycin and 20 μg/mL geneticin) in 225 cm^2 flasks at 37° C. and 5% CO2. Cells were grown to 60-80% confluency, harvested using trypsin-EDTA and pelleted by centrifugation for long-term storage at −80° C.
Cell pellets were thawed on ice and resuspended in 3 mL of membrane preparation buffer (see Media and Buffers for composition) per 1 mL of packed cell. The suspension was homogenised on ice for several 5 s intervals using a hand-held homogeniser. The homogenate was then centrifuged at 1,000 rpm for 5 min at 4° C.
The supernatants were then collected and retained. Initial cell & nuclei pellets (P1) were subsequently rehomogenised and centrifuged using the conditions cited above, and the supernatants collected and pooled with those retained from the first spin.
The pooled supernatants were centrifuged at 19,500 rpm for 45 min at 4° C., and the supernatants discarded. The pellets (P2) were then resuspended in 3 mL of membrane preparation buffer per 1 mL of the original packed cell volume. Protein concentrations were subsequently measured and the membrane suspension was finally frozen in aliquots of set volume and stored at −80° C. prior to use in assays.
For each batch of membrane used, optimal concentrations of Polylysine YSi SPA beads and membrane were determined. The assay free radioligand concentration was expressed as a percentage of the total free radioligand concentration to give an estimate of the radioligand depletion.
The affinity of ^3H-meselurgine for the human recombinant 5-HT2c receptor was determined for each membrane batch at the selected protein and bead concentrations. […] The mean KD for ^3H-meselurgine at a batch of membranes was determined from data from a minimum of three separate assays.
The required amount of membrane, was thawed on ice and added to a pre-determined volume of bead suspension in 50 mM HEPES buffer, pH 7.4. The beads were then pre-coupled by incubating the predetermined protein quantity per mg of bead on a roller 4° C. for 1 h. Subsequently, the bead/membrane complex was spun down at 1000 rpm for 5 min. The resulting pellet was resuspended in assay buffer at the specific concentration required for the final assay.
An aliquot of [^3H]-meselurgine stock was diluted in binding assay buffer to give a pre-determined final assay concentration less than the equilibrium dissociation constant (KD) value.
All test compounds were prepared at a concentration of 4 mM in 100% dimethyl sulphoxide (DMSO) from dry samples.
The same volume of assay buffer was added to specific wells of the plate to enable subsequent measurement of total radioligand binding. Furthermore, 5 μL of Mianserin at 25 μM (2.5 μM final assay concentration was subsequently added to pre-determined wells to determine non-specific binding (NSB).

For “2-[Difluoro(phenyl)methyl]-N-methyl-6,7,8,9-tetrahydro-5H-pyrimido[4,5-d]azepin-4-amine [Example 8]”, in experiment [1], the EC50 worked out at 128 nM and the Emax % came to 54.30%. For the same compound, the Ki in experiment [2] came out at 44.5 nM.
Turning to `CC1CNCCc2cnc(Cc3ccccc3)nc21` (single isomer, unassigned) [47 (Peak 1), 2-Benzyl-9-methyl-6,7,8,9-tetrahydro-5H-pyrimido[4,5-d]azepine], in experiment [1], the EC50 was found to be 453 nM and the Emax % was determined as 96.40%. For the same compound, the Ki in experiment [2] came to 133 nM.
On to `CC1CNCCc2cnc(Cc3ccccc3)nc21` (single isomer, unassigned) [47 (Peak 2), 2-Benzyl-9-methyl-6,7,8,9-tetrahydro-5H-pyrimido[4,5-d]azepine], for which, in experiment [1], the Emax was 76.6% and the EC50 was determined as 233 nM. For the same compound, the Ki in experiment [2] amounted to 218 nM.
For `OC(c1ccccc1)c1ncc2c(n1)CCNCC2` (single isomer, unassigned; stereoisomer 1) [Example 70, Phenyl-(6,7,8,9-tetrahydro-5H-pyrimido[4,5-d]azepin-2-yl)-methanol dihydrochloride (Stereoisomer 1)], in experiment [1], the maximal effect (Emax) stood at 76% and the EC50 turned out to be 643 nM. Also, the Ki in experiment [2] was 978 nM.
On the same counts, the results for `c1ccc(Cc2nc3c(c(-n4cccn4)n2)CCNCC3)cc1` [Example 1, 2-Benzyl-4-(1H-pyrazol-1-yl)-6,7,8,9-tetrahydro-5H-pyrimido[4,5-d]azepine] are 83.5%, 224 nM and 72 nM.
`CC(c1ccccc1)c1ncc2c(n1)CCNCC2` (stereo not drawn) [Example 2, 2-(1-Phenylethyl)-6,7,8,9-tetrahydro-5H-pyrimido[4,5-d]azepine]: in experiment [1], the Emax came out at 84.9% and the EC50 amounted to 198 nM. Further, the Ki in experiment [2] stood at 140 nM.
As to `CC(C)(c1ccccc1)c1ncc2c(n1)CCNCC2` [Example 9, 2-(1-Methyl-1-phenylethyl)-6,7,8,9-tetrahydro-5H-pyrimido[4,5-d]azepine], in experiment [1], the Emax came to 52.6% and the EC50 came to 732 nM. The inhibition constant (Ki) in experiment [2] is 401 nM.
On the same counts, the results for `CC(C)(c1ccccc1)c1nc2c(c(N3CCOCC3)n1)CCNCC2` [Example 11, 2-(1-Methyl-1-phenylethyl)-4-morpholin-4-yl-6,7,8,9-tetrahydro-5H-pyrimido[4,5-d]azepine] are 75.2%, 884 nM and 73.5 nM.
For `c1ccc(C2(c3nc4c(c(N5CCOCC5)n3)CCNCC4)CC2)cc1` [Example 13, 4-Morpholin-4-yl-2-(1-phenylcyclopropyl)-6,7,8,9-tetrahydro-5H-pyrimido[4,5-d]azepine] the same measures were 64.4%, 499 nM and 2300 nM.
On the same counts, the results for `CN(C)c1nc(N(C)Cc2ccccc2)nc2c1CCNCC2` [Example 14, N-2-benzyl-N-2,N-4,N-4-trimethyl-6,7,8,9-tetrahydro-5H-pyrimido[4,5,d]azepin-2-amine] are 50.8%, 279 nM and 144 nM.
For the compound `CN(Cc1ccccc1)c1nc2c(c(N3CCOCC3)n1)CCNCC2` [Example 15, N-benzyl-N-methyl-4-morpholin-4-yl-6,7,8,9-tetrahydro-5H-pyrimido[4,5,d]azepin-2-amine], in experiment [1], the concentration giving a half-maximal response (EC50) is 202 nM and the Emax % was 64.10%. For the same compound, in experiment [2], the Ki was 181 nM.
On to `COc1nc(N(C)Cc2ccccc2)nc2c1CCNCC2` [Example 16, N-benzyl-4-methoxy-N-methyl-6,7,8,9-tetrahydro-5H-pyrimido[4,5,d]azepin-2-amine], for which, in experiment [1], the Emax worked out at 41.4% and the EC50 turned out to be 526 nM. The Ki in experiment [2] is 54.7 nM.
In the case of `OC1CCCN(c2nc(Cc3ccccc3)nc3c2CCNCC3)C1` (stereo not drawn) [Example 18, 1-(2-benzyl-6,7,8,9-tetrahydro-5H-pyrimido[4,5-d]azepin-4-yl)piperidin-3-ol hydrochloride], in experiment [1], the maximal response (Emax) is 51.3% and the EC50 came out at 558 nM. In addition, the Ki in experiment [2] worked out at 243 nM.
For `c1ccc(Cc2nc3c(c(NCC4CCCO4)n2)CCNCC3)cc1` (stereo not drawn) [Example 19, 2-benzyl-N-(tetrahydrofuran-2-ylmethyl)-6,7,8,9-tetrahydro-5H-pyrimidol[4,5-d]azepin-4-amine hydrochloride], in experiment [1], the Emax stood at 36.3% and the EC50 turned out to be 344 nM. Further, the Ki in experiment [2] is 52.4 nM.
`OCCNc1nc(Cc2ccccc2)nc2c1CCNCC2` [Example 23, 2-[(2-benzyl-6,7,8,9-tetrahydro-5H-pyrimido[4,5-d]azepin-4-yl)amino]ethanol hydrochloride]: in experiment [1], the Emax was 72.6% and the EC50 amounted to 159 nM. The Ki in experiment [2] amounted to 107 nM.
Take `CC(C)[C@@H](CO)Nc1nc(Cc2ccccc2)nc2c1CCNCC2` [Example 24, (2S)-2-[(2-benzyl-6,7,8,9-tetrahydro-5H-pyrimido[4,5-d]azepin-4-yl)amino]-3-methylbutan-1-ol hydrochloride]: in experiment [1], the Emax turned out to be 69.9% and the EC50 is 119 nM. For the same compound, the Ki in experiment [2] turned out to be 91.4 nM.
Take `CO[C@H]1CCN(c2nc(Cc3ccccc3)nc3c2CCNCC3)C1` [Example 26, 2-benzyl-4-[(3S)-3-methoxypyrrolidin-1-yl]-6,7,8,9-tetrahydro-5H-pyrimido[4,5-d]azepine hydrochloride]: in experiment [1], the Emax was determined as 60.9% and the EC50 came out at 417 nM. Also, the Ki in experiment [2] was found to be 229 nM.

The EC50 is the concentration needed to bring the measured effect to its halfway point. What is called Ki is a measure of affinity in units of concentration, obtained from inhibition or displacement. What is called Emax is the size of the effect at its maximum, as opposed to the concentration needed.
